Assay results from patent US10488417B2, “Compounds for use as imaging agents” (United Arab Emirates University, priority 2014, dated 2019).

Target: T1, α-synuclein fibrils (Homo sapiens, UniProt P37840)
T1 construct: GST (N, cleaved yes); made in house; host or cells: E. coli BL21
Assay: Congo red binding assay of aged α-synuclein
Format: biochemical
Details: all tested concentrations; fibril control shifts from 490 to 508 nm
Description: CR is a dye with high affinity for amyloid fibrils. Congo red (20 μM) was prepared in PBS (pH 7.4) and filtered through a 0.45 μm filter. Samples of α-synuclein (5 μM), aged alone or with the compounds at different molar ratios, were mixed with Congo red (final concentration 5 μM), and the reaction samples were thoroughly mixed. The UV absorbance spectrum was recorded between 400 and 600 nm in a spectrophotometer (DU-800, Beckman-Coulter) using 10-mm quartz cuvettes (HellmaAnalytics-Germany). Congo red alone was used as blank.

`CC(C)=CCC[C@](C)(O[C@@H]1O[C@H](CO[C@@H]2O[C@H](CO)[C@@H](O)[C@H](O)[C@H]2O)[C@@H](O)[C@H](O)[C@H]1O)[C@H]1CC[C@]2(C)[C@@H]1[C@H](O)C[C@@H]1[C@@]3(C)CC[C@H](O[C@@H]4O[C@H](CO)[C@@H](O)[C@H](O)[C@H]4O[C@@H]4O[C@H](CO)[C@@H](O)[C@H](O)[C@H]4O)C(C)(C)[C@@H]3CC[C@]12C` [Gn Rb1, ginsenoside Rb1] was tested, and the “absorption maximum of Congo red bound to α-synuclein samples” value was no more than 495 nm.
